Measurements from article PMC9785231, “Synthesis and Pharmacological Evaluation of Enantiopure N-Substituted Ortho-c Oxide-Bridged 5-Phenylmorphans” (Molecules, 2022).
Structures can show the parent of a compound that is named as a salt. Where two headings read alike, the source gives them in different places.

Key:
mu-opioid receptor (MOR) = conditions: cited from earlier work
[1] = system: cloned human mu-opioid receptor; conditions: [35S]GTPγS functional assay; cited from earlier work
μ-opioid receptor (MOR) = molecular target: T1, μ-opioid receptor (MOR) (Rattus norvegicus, UniProt P33535); experiment: Opioid receptor binding, MOR ([3H]DAMGO), rat brain homogenate; conditions: for MOR Binding, activity in exploratory binding assays: 100 nM concentration, displacement of radioligand; for Ki: [3H]DAMGO, whole rat brains excluding cerebellum, read-out: MOR Binding (Ki ± SEM)
T1 construct: All assay tubes contained 100 μL homogenate suspension; from tissue; host or cells: whole rat brain excluding cerebellum, membrane homogenate

δ-opioid receptor (DOR) = molecular target: T2, δ-opioid receptor (DOR) (Rattus norvegicus, UniProt P33533); experiment: Opioid receptor binding, DOR ([3H]DADLE), rat brain homogenate; conditions: for DOR Binding, activity in exploratory binding assays: 100 nM concentration, displacement of radioligand
T2 construct: All assay tubes contained 100 μL homogenate suspension; from tissue; host or cells: whole rat brain excluding cerebellum, membrane homogenate

κ-opioid receptor (KOR) = molecular target: T3, κ-opioid receptor (KOR) (Rattus norvegicus, UniProt P34975); experiment: Opioid receptor binding, KOR ([3H]U69,593), rat brain homogenate; conditions: for KOR Binding, activity in exploratory binding assays: 100 nM concentration, displacement of radioligand; for Ki: [3H]U69,593, whole rat brains excluding cerebellum, read-out: KOR Binding (Ki ± SEM)
T3 construct: All assay tubes contained 100 μL homogenate suspension; from tissue; host or cells: whole rat brain excluding cerebellum, membrane homogenate

in vitro [2] = conditions: human, microsomes
in vitro [3] = conditions: mouse, microsomes
[4] = Microsomal metabolic stability, human liver microsomes; conditions: for Remaining (NCF = 60 min): HLM 0.5, no co-factor (no NADPH); for Remaining (T = 60 min): HLM 0.5, with NADPH
[5] = Microsomal metabolic stability, mouse liver microsomes; conditions: for Remaining (NCF = 60 min): MLM 0.5, no co-factor (no NADPH); for Remaining (T = 60 min): MLM 0.5, with NADPH
CYP2D6 = molecular target: T4, CYP2D6 (Homo sapiens, UniProt P10635); experiment: P450 inhibition, human liver microsomal CYP2D6; format: in vitro ADME; conditions: human, human liver microsomes, read-out: 2D6 %Inhibition
T4 construct: selected human liver microsomal cytochrome P450 isozymes (CYP1A2, CYP2C9, CYP2C19, CYP2D6, and CYP3A); from tissue; host or cells: human liver microsomes

CYP2C9 = CYP2C9 (Homo sapiens, UniProt P11712); experiment: P450 inhibition, human liver microsomal CYP2C9; conditions: microsomes
Sequence of CYP2C9 (P11712 whole entry): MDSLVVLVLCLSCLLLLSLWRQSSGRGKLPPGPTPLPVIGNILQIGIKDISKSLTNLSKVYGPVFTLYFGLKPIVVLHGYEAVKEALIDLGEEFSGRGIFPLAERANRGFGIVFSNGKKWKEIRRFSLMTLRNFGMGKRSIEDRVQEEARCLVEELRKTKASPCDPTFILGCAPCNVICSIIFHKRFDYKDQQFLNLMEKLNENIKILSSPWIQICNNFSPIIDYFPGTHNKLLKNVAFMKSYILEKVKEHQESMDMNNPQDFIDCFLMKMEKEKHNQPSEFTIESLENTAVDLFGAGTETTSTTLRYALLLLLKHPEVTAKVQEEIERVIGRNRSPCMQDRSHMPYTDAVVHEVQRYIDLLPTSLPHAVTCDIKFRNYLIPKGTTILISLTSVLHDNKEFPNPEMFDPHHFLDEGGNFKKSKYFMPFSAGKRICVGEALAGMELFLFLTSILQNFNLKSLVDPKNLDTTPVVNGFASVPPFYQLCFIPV

T1 sequence (P33535 whole entry): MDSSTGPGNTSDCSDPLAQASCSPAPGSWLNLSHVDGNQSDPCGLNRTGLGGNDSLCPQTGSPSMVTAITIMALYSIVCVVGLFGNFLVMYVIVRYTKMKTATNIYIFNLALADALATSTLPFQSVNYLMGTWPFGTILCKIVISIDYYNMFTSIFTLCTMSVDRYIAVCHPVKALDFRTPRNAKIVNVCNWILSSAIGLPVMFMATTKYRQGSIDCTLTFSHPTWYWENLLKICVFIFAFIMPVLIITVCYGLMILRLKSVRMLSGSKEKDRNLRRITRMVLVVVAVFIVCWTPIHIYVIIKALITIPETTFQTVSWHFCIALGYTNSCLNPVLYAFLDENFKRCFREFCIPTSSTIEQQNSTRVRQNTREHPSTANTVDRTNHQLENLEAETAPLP
T2 sequence (P33533 whole entry): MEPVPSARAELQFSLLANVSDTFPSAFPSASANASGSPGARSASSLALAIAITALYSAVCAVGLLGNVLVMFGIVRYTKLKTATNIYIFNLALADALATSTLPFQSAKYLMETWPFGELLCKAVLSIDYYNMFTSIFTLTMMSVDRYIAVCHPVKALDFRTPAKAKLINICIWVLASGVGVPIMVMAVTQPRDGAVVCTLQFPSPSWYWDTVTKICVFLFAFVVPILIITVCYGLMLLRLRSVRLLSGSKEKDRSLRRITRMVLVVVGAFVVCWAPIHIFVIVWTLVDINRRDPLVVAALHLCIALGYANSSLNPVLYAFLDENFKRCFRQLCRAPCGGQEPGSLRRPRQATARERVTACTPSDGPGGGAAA
T3 sequence (P34975 whole entry): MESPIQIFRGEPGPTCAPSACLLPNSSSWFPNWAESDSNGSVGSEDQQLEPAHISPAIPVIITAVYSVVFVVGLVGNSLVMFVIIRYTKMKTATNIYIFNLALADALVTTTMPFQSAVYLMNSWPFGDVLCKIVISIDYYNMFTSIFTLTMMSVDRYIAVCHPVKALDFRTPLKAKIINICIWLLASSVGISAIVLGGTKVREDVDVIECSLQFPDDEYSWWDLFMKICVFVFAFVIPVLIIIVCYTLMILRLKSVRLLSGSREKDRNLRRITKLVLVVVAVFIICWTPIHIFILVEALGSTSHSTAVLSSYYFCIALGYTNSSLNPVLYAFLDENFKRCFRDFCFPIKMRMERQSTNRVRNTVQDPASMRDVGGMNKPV
T4 sequence (P10635 whole entry): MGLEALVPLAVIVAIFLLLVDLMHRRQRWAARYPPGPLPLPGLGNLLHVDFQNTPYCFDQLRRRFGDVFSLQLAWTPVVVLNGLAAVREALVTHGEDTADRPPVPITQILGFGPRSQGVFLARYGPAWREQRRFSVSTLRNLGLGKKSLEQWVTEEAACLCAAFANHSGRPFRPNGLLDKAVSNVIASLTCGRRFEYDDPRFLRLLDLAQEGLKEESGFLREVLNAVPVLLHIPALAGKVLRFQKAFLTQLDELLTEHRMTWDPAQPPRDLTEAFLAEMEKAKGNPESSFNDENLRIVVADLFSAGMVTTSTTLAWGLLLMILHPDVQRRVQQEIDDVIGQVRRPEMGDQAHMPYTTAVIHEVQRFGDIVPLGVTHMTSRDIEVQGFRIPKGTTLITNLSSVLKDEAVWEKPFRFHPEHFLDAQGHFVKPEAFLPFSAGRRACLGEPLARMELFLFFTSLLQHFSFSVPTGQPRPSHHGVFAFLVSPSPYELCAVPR

## Oc1cccc2c1O[C@@H]1CN(C[C@@H]3C[C@@H]3c3ccccc3)[C@@H]3CCC[C@]21C3 (as salt: HBr) [(-)-19, (3R,6aS,11aS)-2-(((1R,2S)-2-phenylcyclopropyl)methyl)-1,3,4,5,6,11a-hexahydro-2H-3,6a-methanobenzofuro[2,3-c]azocin-10-ol]
other
  melting point: 193.3 to 198.3 °C

## Oc1cccc2c1O[C@@H]1CN(C[C@H]3C[C@@H]3c3ccccc3)[C@@H]3CCC[C@]21C3 (as salt: HCl) [(+)-16, (3R,6aS,11aS)-2-(((1S,2S)-2-Phenylcyclopropyl)methyl)-1,3,4,5,6,11a-hexahydro-2H-3,6a-methanobenzofuro[2,3-c]azocin-10-ol]
other
  melting point: 246.6 to 251.6 °C

## Oc1cccc2c1O[C@H]1CN(C[C@H]3C[C@@H]3c3ccccc3)[C@H]3CCC[C@@]21C3 (as salt: HCl) [(+)-17, (3S,6aR,11aR)-2-(((1S,2S)-2-Phenylcyclopropyl)methyl)-1,3,4,5,6,11a-hexahydro-2H-3,6a-methanobenzofuro[2,3-c]azocin-10-ol]
other
  melting point: 187.2 to 192.2 °C

## Oc1cccc2c1O[C@@H]1CN(C[C@H]3C[C@H]3c3ccccc3)[C@@H]3CCC[C@]21C3 (as salt: HCl) [(+)-18, (3R,6aS,11aS)-2-(((1S,2R)-2-Phenylcyclopropyl)methyl)-1,3,4,5,6,11a-hexahydro-2H-3,6a-methanobenzofuro[2,3-c]azocin-10-ol]
other
  melting point: 204.4 to 208.5 °C

## Oc1cccc2c1O[C@H]1CN(C[C@H]3C[C@H]3c3ccccc3)[C@H]3CCC[C@@]21C3 (as salt: HCl) [(+)-19, (3S,6aR,11aR)-2-(((1S,2R)-2-Phenylcyclopropyl)methyl)-1,3,4,5,6,11a-hexahydro-2H-3,6a-methanobenzofuro[2,3-c]azocin-10-ol]
other
  melting point: 183.1 to 187.7 °C

## Oc1cccc2c1O[C@H]1CN(C[C@@H]3C[C@H]3c3ccccc3)[C@H]3CCC[C@@]21C3 (as salt: HCl) [(-)-16, (3S,6aR,11aR)-2-(((1R,2R)-2-Phenylcyclopropyl)methyl)-1,3,4,5,6,11a-hexahydro-2H-3,6a-methanobenzofuro[2,3-c]azocin-10-ol]
other
  melting point: 252.7 to 256.5 °C

## Oc1cccc2c1O[C@@H]1CN(C[C@@H]3C[C@H]3c3ccccc3)[C@@H]3CCC[C@]21C3 (as salt: HCl) [(-)-17, (3R,6aS,11aS)-2-(((1R,2R)-2-Phenylcyclopropyl)methyl)-1,3,4,5,6,11a-hexahydro-2H-3,6a-methanobenzofuro[2,3-c]azocin-10-ol]
other
  melting point: 208.2 to 213.2 °C

## Oc1cccc2c1O[C@H]1CN(C[C@@H]3C[C@@H]3c3ccccc3)[C@H]3CCC[C@@]21C3 (as salt: HCl) [(-)-18, (3S,6aR,11aR)-2-(((1R,2S)-2-Phenylcyclopropyl)methyl)-1,3,4,5,6,11a-hexahydro-2H-3,6a-methanobenzofuro[2,3-c]azocin-10-ol]
other
  melting point: 193.9 to 198.5 °C

## Oc1cccc2c1OC1CN(CCc3ccccc3)C3CCCC21C3 (racemic) [(±)-1]
mu-opioid receptor (MOR); racemate, read-out: mu-opioid receptor affinity Ki
  Ki: 1.1 nM

## Oc1cccc(C23CCCC(C2)N(CC2CC2c2ccccc2)CC3)c1 (single isomer, unassigned; (+)) [(+)-2]
mu-opioid receptor (MOR); N-substituted 5-phenylmorphans, read-out: affinity at MOR Ki
  Ki: 3 nM
[1]
  mu-opioid antagonist activity Ke: 0.17 nM

## Oc1cccc2c1O[C@@H]1CN(C[C@H]3C[C@@H]3c3ccccc3)[C@@H]3CCC[C@]21C3 [(+)-16, (3R,6aS,11aS)-2-(((1S,2S)-2-Phenylcyclopropyl)methyl)-1,3,4,5,6,11a-hexahydro-2H-3,6a-methanobenzofuro[2,3-c]azocin-10-ol]
μ-opioid receptor (MOR)
  MOR Binding, activity in exploratory binding assays: NT (NT = not tested—inactive (<50% activity at 100 nM concentration in exploratory binding assays (displaced less than half of radioligand))
δ-opioid receptor (DOR)
  DOR Binding, activity in exploratory binding assays: NT (NT = not tested—inactive (<50% activity at 100 nM concentration in exploratory binding assays (displaced less than half of radioligand))
κ-opioid receptor (KOR)
  KOR Binding, activity in exploratory binding assays: NT (NT = not tested—inactive (<50% activity at 100 nM concentration in exploratory binding assays (displaced less than half of radioligand))

## Oc1cccc2c1O[C@@H]1CN(C[C@H]3C[C@H]3c3ccccc3)[C@@H]3CCC[C@]21C3 [(+)-18, (3R,6aS,11aS)-2-(((1S,2R)-2-Phenylcyclopropyl)methyl)-1,3,4,5,6,11a-hexahydro-2H-3,6a-methanobenzofuro[2,3-c]azocin-10-ol]
μ-opioid receptor (MOR)
  MOR Binding, activity in exploratory binding assays: NT (NT = not tested—inactive (<50% activity at 100 nM concentration in exploratory binding assays (displaced less than half of radioligand))
δ-opioid receptor (DOR)
  DOR Binding, activity in exploratory binding assays: NT (NT = not tested—inactive (<50% activity at 100 nM concentration in exploratory binding assays (displaced less than half of radioligand))
κ-opioid receptor (KOR)
  KOR Binding, activity in exploratory binding assays: NT (NT = not tested—inactive (<50% activity at 100 nM concentration in exploratory binding assays (displaced less than half of radioligand))

## Oc1cccc2c1O[C@H]1CN(C[C@H]3C[C@H]3c3ccccc3)[C@H]3CCC[C@@]21C3 [(+)-19, (3S,6aR,11aR)-2-(((1S,2R)-2-Phenylcyclopropyl)methyl)-1,3,4,5,6,11a-hexahydro-2H-3,6a-methanobenzofuro[2,3-c]azocin-10-ol]
μ-opioid receptor (MOR)
  Ki: 52.4 ± 5.1 nM
δ-opioid receptor (DOR)
  DOR Binding, activity in exploratory binding assays: NT (NT = not tested—inactive (<50% activity at 100 nM concentration in exploratory binding assays (displaced less than half of radioligand))
κ-opioid receptor (KOR)
  Ki: 67.3 ± 7.9 nM

## Oc1cccc2c1O[C@H]1CN(C[C@@H]3C[C@H]3c3ccccc3)[C@H]3CCC[C@@]21C3 [(-)-16, (3S,6aR,11aR)-2-(((1R,2R)-2-Phenylcyclopropyl)methyl)-1,3,4,5,6,11a-hexahydro-2H-3,6a-methanobenzofuro[2,3-c]azocin-10-ol]
μ-opioid receptor (MOR)
  Ki: 109 ± 5.5 nM
δ-opioid receptor (DOR)
  DOR Binding, activity in exploratory binding assays: NT (NT = not tested—inactive (<50% activity at 100 nM concentration in exploratory binding assays (displaced less than half of radioligand))
κ-opioid receptor (KOR)
  KOR Binding, activity in exploratory binding assays: NT (NT = not tested—inactive (<50% activity at 100 nM concentration in exploratory binding assays (displaced less than half of radioligand))

## Oc1cccc2c1O[C@@H]1CN(C[C@@H]3C[C@H]3c3ccccc3)[C@@H]3CCC[C@]21C3 [(-)-17, (3R,6aS,11aS)-2-(((1R,2R)-2-Phenylcyclopropyl)methyl)-1,3,4,5,6,11a-hexahydro-2H-3,6a-methanobenzofuro[2,3-c]azocin-10-ol]
μ-opioid receptor (MOR)
  MOR Binding, activity in exploratory binding assays: NT (NT = not tested—inactive (<50% activity at 100 nM concentration in exploratory binding assays (displaced less than half of radioligand))
δ-opioid receptor (DOR)
  DOR Binding, activity in exploratory binding assays: NT (NT = not tested—inactive (<50% activity at 100 nM concentration in exploratory binding assays (displaced less than half of radioligand))
κ-opioid receptor (KOR)
  KOR Binding, activity in exploratory binding assays: NT (NT = not tested—inactive (<50% activity at 100 nM concentration in exploratory binding assays (displaced less than half of radioligand))

## Oc1cccc2c1O[C@H]1CN(C[C@@H]3C[C@@H]3c3ccccc3)[C@H]3CCC[C@@]21C3 [(-)-18, (3S,6aR,11aR)-2-(((1R,2S)-2-Phenylcyclopropyl)methyl)-1,3,4,5,6,11a-hexahydro-2H-3,6a-methanobenzofuro[2,3-c]azocin-10-ol]
δ-opioid receptor (DOR); [3H]DADLE, whole rat brains excluding cerebellum, read-out: DOR Binding (Ki ± SEM)
  Ki: 89 ± 13.4 nM
κ-opioid receptor (KOR)
  Ki: 109 ± 16 nM

## Oc1cccc2c1O[C@@H]1CN(C[C@@H]3C[C@@H]3c3ccccc3)[C@@H]3CCC[C@]21C3 [(-)-19, (3R,6aS,11aS)-2-(((1R,2S)-2-phenylcyclopropyl)methyl)-1,3,4,5,6,11a-hexahydro-2H-3,6a-methanobenzofuro[2,3-c]azocin-10-ol]
μ-opioid receptor (MOR)
  MOR Binding, activity in exploratory binding assays: NT (NT = not tested—inactive (<50% activity at 100 nM concentration in exploratory binding assays (displaced less than half of radioligand))
δ-opioid receptor (DOR)
  DOR Binding, activity in exploratory binding assays: NT (NT = not tested—inactive (<50% activity at 100 nM concentration in exploratory binding assays (displaced less than half of radioligand))
κ-opioid receptor (KOR)
  KOR Binding, activity in exploratory binding assays: NT (NT = not tested—inactive (<50% activity at 100 nM concentration in exploratory binding assays (displaced less than half of radioligand))

## O=C(O)Cc1ccccc1Nc1c(Cl)cccc1Cl [Diclofenac]
In vitro [2]
  CLint scaled: 162 mL/min/kg
In vitro [3]
  microsomal CLint: 35.4 µL/min/mg
[4]
  Remaining (NCF = 60 min): 95.1%
  Remaining (T = 60 min): 0.4%
[5]
  Remaining (NCF = 60 min): 99.4%
  Remaining (T = 60 min): 33.5%

## C=C[C@H]1C[N@@]2CC[C@H]1C[C@@H]2[C@@H](O)c1ccnc2ccc(OC)cc12 [Quinidine, reference compound]
CYP2D6
  inhibition at 10 µM: 94.2%

## Nc1ccc(S(=O)(=O)Nc2ccnn2-c2ccccc2)cc1 [Sulfaphenazole]
CYP2C9
  inhibition at 10 µM: 85.2%

## C[C@]12CC[C@H]3[C@@H](CCC4=CC(=O)CC[C@@]43C)[C@@H]1CC[C@@H]2O [Testosterone]
In vitro [2]
  CLint scaled: 96.4 mL/min/kg
In vitro [3]
  CLint scaled: 1720 mL/min/kg
  half-life: 3.2 min
  microsomal CLint: 435 µL/min/mg
[4]
  Remaining (NCF = 60 min): 86.7%
  Remaining (T = 60 min): 3.9%
[5]
  Remaining (NCF = 60 min): 97.1%
  Remaining (T = 60 min): 0.0%
